Like-named read-outs stand apart in the source and are kept apart here.
Assays:
[1] = test system: telo23-K+ (DNA, G4) TAGGGTTAGGGTTAGGGTTAGGG; test: UV-Vis titration; details: independent/equivalent sites, 10 µM ligand, DNA up to 30 µM, apparent
[2] = test system: telo22-Na+ (DNA, G4) AGGGTTAGGGTTAGGGTTAGGG; test: UV-Vis titration; details: independent/equivalent sites, 10 µM ligand, DNA up to 30 µM, apparent
[3] = test system: ds26-K+ (self-complementary duplex); test: UV-Vis titration, ds26-K+; assay type: binding
Protocol: (§1) To obtain quantitative information on the binding of NDI 1 and PDI 3 to the previously assessed G4 and duplex DNA structures, ultraviolet‐visible absorbance spectroscopy (UV‐Vis) titrations were conducted (Figure 3 and S10). In all cases the ligand concentration was kept constant at 10 μM, whilst oligonucleotide was titrated in up to a final concentration of 30 μM. The observed binding isotherms were fitted to an independent/equivalent sites binding model, and binding constants (K a) were determined. […]
(§2) telo22-Na+ (antiparallel basket […]
(§3) telo23 and telo22 were selected as models for the human telomeric G-quadruplex under K+ and Na+ conditions, respectively, as they have been the subject of detailed structural studies,[S8,S9] […]
(§4) used. telo23 forms primarily a (3+1) hybrid structure under K+ conditions,[S8] whilst telo22 forms a single antiparallel fold.[S9]
(§5) The oligonucleotides were at a concentration of 5 µM and the buffers used were either potassium phosphate (100 mM, pH 7.4) for telo23-K+, EBR1-K+ and ds26-K+ or sodium phosphate (100 mM, pH 7.4) for telo22-Na+. […]
(§6) UV-Visible Absorbance Spectroscopy
(§7) Absorbance spectra were recorded on a Cary 60 UV-Visible (UV-Vis) spectrophotometer using a room-light immune fibre optic probe with 10 mm path length. […]
(§8) were corrected for background and buffer absorbance. […]

[4] = test system: EBR1-K+ (mixed G4 from T. brucei); test: UV-Vis titration, EBR1-K+; assay type: binding
Protocol: as §1, §2, §3, §4, §5, §6, §7, §8

[5] = test system: telo23-K+ (hybrid type human telomeric G4); test: UV-Vis titration, telo23-K+; assay type: binding; details: for Ka, telo23-K+: UV-Vis titration
Protocol: as §1, §2, §3, §4
The oligonucleotides were at a concentration of 5 µM and the buffers used were either potassium phosphate (100 mM, pH 7.4) for telo23-K+, EBR1-K+ and ds26-K+ or sodium phosphate (100 mM, pH 7.4) for telo22-Na+. The reported spectrum for each sample represents the average of 3 scans and is baseline corrected for the buffer used. Data processing was carried out using Prism 7 (GraphPad Software) with a 4-point second order smoothing polynomial applied to all spectra. Observed ellipticities were converted to molar ellipticity.
as §6
Absorbance spectra were recorded on a Cary 60 UV-Visible (UV-Vis) spectrophotometer using a room-light immune fibre optic probe with 10 mm path length. The UV-Vis spectra were […]
were corrected for background and buffer absorbance. The oligonucleotides and buffer conditions were the same as employed in the CD experiments.
In the titrations, the concentration of ligand was fixed at 10 µM in an initial volume of 500 µL.
Aliquots of oligonucleotide were added using a microsyringe from a 100 µM stock solution in appropriate buffer containing also 10 µM ligand to maintain constant ligand concentration.
Note: the oligonucleotide solution was annealed by heating to 90 °C for 2 minutes and then cooling on ice prior to the addition of ligand (to avoid annealing in the presence of ligand).
Following addition, the solution was mixed thoroughly and the UV-visible spectrum was […]

[6] = test system: EBR1-K+ (DNA, G4) GGGCAGGGGGTGATGGGGAGGAGCCAGGG; test: UV-Vis titration; details: independent/equivalent sites, 10 µM ligand, DNA up to 30 µM, apparent
[7] = test system: telo22-Na+ (antiparallel basket human telomeric G4); test: UV-Vis titration, telo22-Na+; assay type: binding
Protocol: as §1, §2, §3, §4, §5, §6, §7, §8

[8] = test system: FmycT-K+ (c-Myc promoter G-quadruplex, parallel); details: 200 nM DNA, previously reported data for 1, cited from earlier work
[9] = test system: F21T-K+ (human telomeric G-quadruplex, mixed parallel/hybrid); details: 200 nM DNA, previously reported data for 1, cited from earlier work
[10] = test system: F21T-Na+ (human telomeric G-quadruplex, antiparallel); details: 200 nM DNA, previously reported data for 1, ref S16, cited from earlier work
[11] = test system: EBR1-K+ (DNA, G4) GGGCAGGGGGTGATGGGGAGGAGCCAGGG; test: CD titration; details: 20 °C, 5 µM DNA, up to 10 equivalents ligand
[12] = test system: telo22-Na+ (DNA, G4) AGGGTTAGGGTTAGGGTTAGGG; test: NMR titration; details: 70 mM NaCl; 25 mM sodium phosphate pH 7.0, 10% D2O, 298 K; 185 µM DNA, up to 2 equivalents
[13] = test system: F21T (DNA, G4) GGGTTAGGGTTAGGGTTAGGG; test: FRET melting; details: 10 mM Li cacodylate, 5 µM ligand, 200 nM DNA
[14] = test system: FMycT (DNA, G4) TTGAGGGTGGGTAGGGTGGGTAA; test: FRET melting; details: 1 mM K+, 99 mM Li+; 10 mM Li cacodylate; 5 µM ligand, 200 nM DNA
[15] = test system: F10T (DNA, hairpin, hexaethylene glycol (HEG) linker between 10 and 11) TATAGCTATATATAGCTATA; test: FRET melting; details: 10 mM K+, 90 mM Li+; 10 mM Li cacodylate; 5 µM ligand, 200 nM DNA

Structure (SMILES): CN1CCN(CCCN2C(=O)c3ccc4c5ccc6c7c(ccc(c8ccc(c3c48)C2=O)c75)C(=O)N(CCCN2CCN(C)CC2)C6=O)CC1 [Compound 3]
- Ka [1]: 2×10^6
- Ka [2]: 8×10^5
- Ka, ds26-K+ [3]: 5×10^4
- Ka, EBR1-K+ [4]: 3×10^5
- Ka, telo23-K+ [5]: 2×10^6
- selectivity for telo23-K+ G4 over EBR1-K+ G4 ([5]; ratio of Ka, UV-Vis): ~7 fold
- selectivity for telo23-K+ G4 over ds26-K+ duplex ([5]; ratio of Ka, UV-Vis): 40 fold
- Ka [6]: 3×10^5
- Ka, telo22-Na+ [7]: 8×10^5

Structure (SMILES): CN1CCN(CCCN2C(=O)c3ccc4c5c(ccc(c35)C2=O)C(=O)N(CCCN2CCN(C)CC2)C4=O)CC1 [Compound 1]
- Ka [1]: 6×10^6
- Ka [2]: 6×10^4
- ΔTm FmycT-K+ ([8]; 1 µM ligand, ref S16): 0 ± 1 °C
- ΔTm FmycT-K+ ([8]; 5 μM ligand): 7±2 °C
- ΔTm FmycT-K+ ([8]; 10 µM ligand, ref S16): 13 ± 1 °C
- ΔTm F21T-K+ ([9]; 1 µM ligand, ref S16): 10 ± 1 °C
- ΔTm F21T-K+ ([9]; 5 μM ligand): 14±2 °C
- ΔTm F21T-K+ ([9]; 10 µM ligand, ref S16): 20 ± 1 °C
- Ka, ds26-K+ [3]: 1×10^6
- ΔTm F21T-Na+ ([10]; 1 µM ligand): -2 ± 1 °C
- ΔTm F21T-Na+ ([10]; 10 µM ligand): 2 ± 1 °C
- Ka, EBR1-K+ [4]: 2×10^6
- Ka, telo23-K+ [5]: 6×10^6
- Ka [6]: 2×10^6
- Ka, telo22-Na+ [7]: 6×10^4

Structure (SMILES): CN1CCN(CCCNC(=O)c2ccc(Oc3ccc(C(C)(C)c4ccc(Oc5ccc(C(=O)NCCCN6CCN(C)CC6)c(C(=O)NCCCN6CCN(C)CC6)c5)cc4)cc3)cc2C(=O)NCCCN2CCN(C)CC2)CC1 [Compound 11]
- binding [11]: yes
- binding [12]: yes
- ΔTm ([13]; 10 mM K+, 90 mM Li+): 7±2 °C
- ΔTm ([13]; 100 mM Na+): 1±1 °C
- ΔTm [14]: 5±1 °C
- ΔTm [15]: 0±1 °C

From publication PMC8251916 (Chemistry (Weinheim an Der Bergstrasse, Germany), 2021)
